In ChEMBL document CHEMBL1137865, “Modeling the binding affinities of beta-secretase inhibitors: application to subsite specificity” (Bioorg Med Chem Lett, 2004):
Starred links: 1 amine or outer side, 2 acyl side, 3 side chain; linkers in the order of their positions; H or OH if unused. Non-standard residues stand in square brackets, D forms with d. Residues, ends and D or L forms follow the SMILES beside them. *: point of attachment. LeuΨ(S-CHOHCH2)Ala = CC(C)C[C@H](N[*:1])[C@@H](O)C[C@@H](C)C(=O)[*:2]; X1 = O=C(O)CC[C@H](N*)C(=O)C[C@@H](Cc1ccccc1)C(=O)O

target: Beta-secretase 1 (Homo sapiens, UniProt P56817); experiment: Binding affinity against Beta-secretase
Sequence (P56817 whole entry): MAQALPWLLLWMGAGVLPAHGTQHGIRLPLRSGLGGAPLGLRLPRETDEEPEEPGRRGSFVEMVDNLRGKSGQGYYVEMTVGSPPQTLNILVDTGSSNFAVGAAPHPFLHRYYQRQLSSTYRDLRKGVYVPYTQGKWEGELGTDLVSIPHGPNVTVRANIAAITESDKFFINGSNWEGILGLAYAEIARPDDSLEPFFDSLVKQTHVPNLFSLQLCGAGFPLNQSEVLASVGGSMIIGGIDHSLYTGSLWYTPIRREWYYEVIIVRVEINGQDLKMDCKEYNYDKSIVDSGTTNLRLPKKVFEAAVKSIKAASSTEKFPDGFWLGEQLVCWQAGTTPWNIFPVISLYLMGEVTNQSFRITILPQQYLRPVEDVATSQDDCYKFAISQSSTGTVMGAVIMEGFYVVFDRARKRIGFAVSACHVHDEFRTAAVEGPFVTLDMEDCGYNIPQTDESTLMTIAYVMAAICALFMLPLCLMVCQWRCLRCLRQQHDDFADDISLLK

SMILES	Ki	IC50
CC(C)C[C@H](NCC(=O)[C@H](CS(C)(=O)=O)NC(=O)OC(C)(C)C)C(O)CC(C)C(=O)NC(C(=O)NCc1ccccc1)C(C)C (some centres undefined)	1.13 µM	
CCCN(CCC)C(=O)c1cccc(C(=O)N[C@@H](Cc2cc(F)cc(F)c2)[C@@H](O)C[C@@H](CC)C(=O)NCCCCC(=O)O)c1		0.4 µM
CCCN(CCC)C(=O)c1cccc(C(=O)N[C@@H](Cc2cc(F)cc(F)c2)[C@@H](O)C[C@@H](CC)C(=O)N[C@H]2C[C@@H](OC)C[C@@H](OC)C2)c1		6.6 µM
CCCN(CCC)C(=O)c1cccc(C(=O)N[C@@H](Cc2cc(F)cc(F)c2)[C@@H](O)C[C@@H](CC)C(=O)NCCC(=O)O)c1		2.8 µM
CC(C)C[C@H](NCC(=O)[C@H](CC(N)=O)NC(=O)OC(C)(C)C)C(O)CC(C)C(=O)NC(C(=O)NCc1ccccc1)C(C)C (some centres undefined)	3.13 µM	
CC(C)C[C@H](NCC(=O)[C@H](CC(N)=O)NC(=O)OC(C)(C)C)C(O)CC(C)C(=O)NC(C)C(=O)NCc1ccccc1 (some centres undefined)	22.4 µM	
CCCN(CCC)C(=O)c1cccc(C(=O)N[C@@H](Cc2cc(F)cc(F)c2)[C@@H](O)C[C@@H](CC)C(=O)NC[C@H]2CC[C@H](C(=O)O)CC2)c1		0.05 µM
CCCN(CCC)C(=O)c1cccc(C(=O)N[C@@H](Cc2cc(F)cc(F)c2)[C@@H](O)C[C@@H](CC)C(=O)NCc2ccccc2)c1		1.4 µM
CC(C)C[C@H](NC(=O)[C@@H](N)CCC(=O)O)C(=O)N[C@@H](CC(=O)O)C(=O)N[C@@H](CC(C)C)[C@@H](O)C[C@@H](C)C(=O)N[C@H](C(=O)N[C@@H](CCC(=O)O)C(=O)C[C@@H](Cc1ccccc1)C(=O)O)C(C)C (H-ELD[LeuΨ(S-CHOHCH2)Ala]V-X1)	0.00032 µM	
